Data published in ChEMBL document CHEMBL3217507, “3,3-Dimethyl-1H-pyrrolo[3,2-g]quinolin-2(3H)-one derivatives as novel Raf kinase inhibitors” (Medchemcomm, 2013).

Legend:
[1] = Cytotoxicity against human KCC-853 cells after 72 hrs by MTT assay; type: functional, cell-based; details: KCC-853, 72 h
A549 = experiment: Cytotoxicity against human A549 cells after 72 hrs by MTT assay; type: functional, cell-based; details: A549, 72 h
HepG2 = experiment: Cytotoxicity against human HepG2 cells after 72 hrs by MTT assay; type: functional, cell-based; details: HepG2, 72 h
[2] = target: RAF proto-oncogene serine/threonine-protein kinase (Homo sapiens) (UniProt P04049); experiment: Inhibition of c-RAF (unknown origin) using [33P]ATP by […] assay
[3] = target: Hepatocyte growth factor receptor (Homo sapiens) (UniProt P08581); experiment: Inhibition of c-MET (unknown origin) at 10 uM
[4] = target: Mast/stem cell growth factor receptor Kit (Homo sapiens) (UniProt P10721); experiment: Inhibition of c-Kit (unknown origin) at 10 uM
[5] = target: RAC-alpha serine/threonine-protein kinase (Homo sapiens) (UniProt P31749); experiment: Inhibition of AKT1 (unknown origin) at 10 uM
[6] = target: Tyrosine-protein kinase ABL1 (Homo sapiens) (UniProt P00519); experiment: Inhibition of ABL1 (unknown origin) at 10 uM
[7] = target: Vascular endothelial growth factor receptor 2 (Homo sapiens) (UniProt P35968); experiment: Inhibition of VEGFR2 (unknown origin) at 10 uM
[8] = target: Tyrosine-protein kinase SYK (Homo sapiens) (UniProt P43405); experiment: Inhibition of SYK (unknown origin) at 10 uM
[9] = target: Angiopoietin-1 receptor (Homo sapiens) (UniProt Q02763); experiment: Inhibition of TIE2 (unknown origin) at 10 uM
[10] = target: Vascular endothelial growth factor receptor 2 (Homo sapiens) (UniProt P35968); experiment: Inhibition of KDR (unknown origin) at 10 uM
[11] = target: Serine/threonine-protein kinase PLK1 (Homo sapiens) (UniProt P53350); experiment: Inhibition of PLK1 (unknown origin) at 10 uM
Homo sapiens = organism: Homo sapiens; experiment: Inhibition of PKA (unknown origin) at 10 uM
[12] = target: Platelet-derived growth factor receptor alpha (Homo sapiens) (UniProt P16234); experiment: Inhibition of PDGFR-alpha (unknown origin) at 10 uM
[13] = target: Focal adhesion kinase 1 (Homo sapiens) (UniProt Q05397); experiment: Inhibition of PTK2 (unknown origin) at 10 uM
[14] = target: Tyrosine-protein kinase JAK2 (Homo sapiens) (UniProt O60674); experiment: Inhibition of JAK2 (unknown origin) at 10 uM
[15] = target: Inhibitor of nuclear factor kappa-B kinase subunit beta (Homo sapiens) (UniProt O14920); experiment: Inhibition of IKKbeta (unknown origin) at 10 uM
[16] = target: Fibroblast growth factor receptor 1 (Homo sapiens) (UniProt P11362); experiment: Inhibition of FGFR1 (unknown origin) at 10 uM
[17] = target: Tyrosine-protein kinase Fyn (Homo sapiens) (UniProt P06241); experiment: Inhibition of FYN (unknown origin) at 10 uM
[18] = target: Macrophage colony-stimulating factor 1 receptor (Homo sapiens) (UniProt P07333); experiment: Inhibition of FMS (unknown origin) at 10 uM
[19] = target: Receptor-type tyrosine-protein kinase FLT3 (Homo sapiens) (UniProt P36888); experiment: Inhibition of FLT3 (unknown origin) at 10 uM
[20] = target: Cyclin-dependent kinase 2 (Homo sapiens) (UniProt P24941); experiment: Inhibition of CDK2 (unknown origin) at 10 uM
[21] = target: RAF proto-oncogene serine/threonine-protein kinase (Homo sapiens) (UniProt P04049); experiment: Inhibition of c-RAF (unknown origin) at 10 uM

Chain of RAF proto-oncogene serine/threonine-protein kinase (Homo sapiens) (P04049 whole entry): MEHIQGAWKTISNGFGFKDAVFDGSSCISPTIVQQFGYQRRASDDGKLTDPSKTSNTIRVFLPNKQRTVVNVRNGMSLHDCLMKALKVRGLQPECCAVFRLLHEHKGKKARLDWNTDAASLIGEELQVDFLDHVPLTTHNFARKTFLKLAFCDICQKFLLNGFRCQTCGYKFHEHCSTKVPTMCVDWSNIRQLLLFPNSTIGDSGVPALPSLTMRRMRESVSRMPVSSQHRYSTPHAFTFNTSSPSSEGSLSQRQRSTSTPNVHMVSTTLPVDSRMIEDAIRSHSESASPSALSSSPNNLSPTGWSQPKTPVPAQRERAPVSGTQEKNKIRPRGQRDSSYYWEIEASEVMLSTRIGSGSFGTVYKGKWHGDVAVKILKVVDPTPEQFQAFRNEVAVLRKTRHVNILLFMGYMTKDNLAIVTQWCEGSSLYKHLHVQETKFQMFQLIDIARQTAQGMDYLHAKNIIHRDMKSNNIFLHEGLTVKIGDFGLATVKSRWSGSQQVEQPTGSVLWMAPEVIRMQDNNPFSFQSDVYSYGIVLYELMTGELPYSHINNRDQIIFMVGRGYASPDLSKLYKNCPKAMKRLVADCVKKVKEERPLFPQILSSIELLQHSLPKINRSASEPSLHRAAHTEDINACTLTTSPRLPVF
Chain of Vascular endothelial growth factor receptor 2 (Homo sapiens) (P35968 whole entry): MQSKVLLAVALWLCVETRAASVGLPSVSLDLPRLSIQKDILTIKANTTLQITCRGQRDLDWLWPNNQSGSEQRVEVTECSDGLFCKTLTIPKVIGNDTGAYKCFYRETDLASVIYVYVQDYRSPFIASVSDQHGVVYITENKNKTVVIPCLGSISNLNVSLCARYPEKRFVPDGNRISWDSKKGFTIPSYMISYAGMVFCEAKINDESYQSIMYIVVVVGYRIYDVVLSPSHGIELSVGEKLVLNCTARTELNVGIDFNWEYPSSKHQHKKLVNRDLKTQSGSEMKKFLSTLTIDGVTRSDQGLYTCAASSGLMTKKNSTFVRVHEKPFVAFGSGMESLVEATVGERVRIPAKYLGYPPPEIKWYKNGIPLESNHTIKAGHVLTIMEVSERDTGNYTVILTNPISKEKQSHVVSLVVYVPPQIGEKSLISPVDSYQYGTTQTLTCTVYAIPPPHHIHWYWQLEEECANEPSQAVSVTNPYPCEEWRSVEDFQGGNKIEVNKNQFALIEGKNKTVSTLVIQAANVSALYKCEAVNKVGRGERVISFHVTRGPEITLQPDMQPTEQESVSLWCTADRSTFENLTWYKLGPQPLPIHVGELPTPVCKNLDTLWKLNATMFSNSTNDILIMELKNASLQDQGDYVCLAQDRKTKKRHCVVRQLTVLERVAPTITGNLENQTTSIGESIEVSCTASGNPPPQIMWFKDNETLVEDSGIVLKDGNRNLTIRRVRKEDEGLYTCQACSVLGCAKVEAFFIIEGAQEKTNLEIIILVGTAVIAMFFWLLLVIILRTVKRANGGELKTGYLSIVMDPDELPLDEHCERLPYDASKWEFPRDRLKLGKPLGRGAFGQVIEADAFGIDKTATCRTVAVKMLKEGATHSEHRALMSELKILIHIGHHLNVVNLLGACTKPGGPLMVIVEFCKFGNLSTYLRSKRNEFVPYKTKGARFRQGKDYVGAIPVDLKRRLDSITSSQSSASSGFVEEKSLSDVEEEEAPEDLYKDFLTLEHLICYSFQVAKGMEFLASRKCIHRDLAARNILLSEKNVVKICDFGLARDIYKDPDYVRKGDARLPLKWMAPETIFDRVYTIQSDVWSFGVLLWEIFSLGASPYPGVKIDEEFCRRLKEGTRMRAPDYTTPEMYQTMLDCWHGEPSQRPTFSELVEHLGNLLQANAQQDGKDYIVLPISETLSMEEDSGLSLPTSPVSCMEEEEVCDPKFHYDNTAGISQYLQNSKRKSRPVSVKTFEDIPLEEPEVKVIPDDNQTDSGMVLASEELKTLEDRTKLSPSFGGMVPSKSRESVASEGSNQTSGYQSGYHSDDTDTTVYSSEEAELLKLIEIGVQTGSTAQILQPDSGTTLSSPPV
Chain of Serine/threonine-protein kinase PLK1 (Homo sapiens) (P53350 whole entry): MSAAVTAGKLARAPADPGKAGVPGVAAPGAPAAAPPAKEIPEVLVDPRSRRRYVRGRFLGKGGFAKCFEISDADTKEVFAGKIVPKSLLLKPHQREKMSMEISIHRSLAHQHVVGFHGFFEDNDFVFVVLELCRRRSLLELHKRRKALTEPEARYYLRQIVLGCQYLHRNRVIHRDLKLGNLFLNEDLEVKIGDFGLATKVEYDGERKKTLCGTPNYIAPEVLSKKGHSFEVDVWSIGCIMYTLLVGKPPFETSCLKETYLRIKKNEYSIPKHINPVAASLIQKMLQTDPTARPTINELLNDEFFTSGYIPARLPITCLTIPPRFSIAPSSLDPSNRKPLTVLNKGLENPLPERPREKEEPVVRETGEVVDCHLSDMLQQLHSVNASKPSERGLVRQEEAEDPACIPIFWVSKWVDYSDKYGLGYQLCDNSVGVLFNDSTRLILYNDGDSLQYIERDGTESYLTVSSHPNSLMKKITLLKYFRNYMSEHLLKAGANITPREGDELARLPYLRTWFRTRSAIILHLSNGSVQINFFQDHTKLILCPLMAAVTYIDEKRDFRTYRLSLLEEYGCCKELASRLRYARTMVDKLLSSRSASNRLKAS
Chain of Focal adhesion kinase 1 (Homo sapiens) (Q05397 2-1052 limits assumed): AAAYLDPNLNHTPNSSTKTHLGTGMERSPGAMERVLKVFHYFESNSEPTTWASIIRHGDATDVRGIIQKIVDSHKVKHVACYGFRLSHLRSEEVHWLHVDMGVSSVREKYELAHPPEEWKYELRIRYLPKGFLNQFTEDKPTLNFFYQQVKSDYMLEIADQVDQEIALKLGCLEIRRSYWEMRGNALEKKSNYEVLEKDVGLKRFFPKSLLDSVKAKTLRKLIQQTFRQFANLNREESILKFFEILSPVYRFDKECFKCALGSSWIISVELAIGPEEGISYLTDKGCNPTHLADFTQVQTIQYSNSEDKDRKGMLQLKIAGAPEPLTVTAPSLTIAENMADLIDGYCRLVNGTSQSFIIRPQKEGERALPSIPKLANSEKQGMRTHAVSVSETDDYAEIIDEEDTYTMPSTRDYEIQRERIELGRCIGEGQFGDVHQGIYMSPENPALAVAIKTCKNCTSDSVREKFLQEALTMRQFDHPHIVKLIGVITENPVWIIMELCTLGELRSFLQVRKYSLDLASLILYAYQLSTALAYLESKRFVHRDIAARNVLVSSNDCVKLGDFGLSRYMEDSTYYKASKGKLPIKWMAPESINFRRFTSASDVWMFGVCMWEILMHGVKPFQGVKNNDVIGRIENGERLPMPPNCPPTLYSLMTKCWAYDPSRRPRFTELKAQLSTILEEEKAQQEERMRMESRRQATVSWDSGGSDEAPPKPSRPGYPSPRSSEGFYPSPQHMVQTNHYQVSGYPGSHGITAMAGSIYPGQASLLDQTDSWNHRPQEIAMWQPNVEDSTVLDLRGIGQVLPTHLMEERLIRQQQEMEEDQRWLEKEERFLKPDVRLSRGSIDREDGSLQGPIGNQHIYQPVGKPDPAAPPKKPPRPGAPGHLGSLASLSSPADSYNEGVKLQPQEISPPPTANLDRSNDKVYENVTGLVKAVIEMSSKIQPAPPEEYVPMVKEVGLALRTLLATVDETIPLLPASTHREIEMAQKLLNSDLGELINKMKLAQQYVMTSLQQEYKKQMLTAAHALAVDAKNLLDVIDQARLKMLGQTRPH
Chain of Macrophage colony-stimulating factor 1 receptor (Homo sapiens) (P07333 whole entry): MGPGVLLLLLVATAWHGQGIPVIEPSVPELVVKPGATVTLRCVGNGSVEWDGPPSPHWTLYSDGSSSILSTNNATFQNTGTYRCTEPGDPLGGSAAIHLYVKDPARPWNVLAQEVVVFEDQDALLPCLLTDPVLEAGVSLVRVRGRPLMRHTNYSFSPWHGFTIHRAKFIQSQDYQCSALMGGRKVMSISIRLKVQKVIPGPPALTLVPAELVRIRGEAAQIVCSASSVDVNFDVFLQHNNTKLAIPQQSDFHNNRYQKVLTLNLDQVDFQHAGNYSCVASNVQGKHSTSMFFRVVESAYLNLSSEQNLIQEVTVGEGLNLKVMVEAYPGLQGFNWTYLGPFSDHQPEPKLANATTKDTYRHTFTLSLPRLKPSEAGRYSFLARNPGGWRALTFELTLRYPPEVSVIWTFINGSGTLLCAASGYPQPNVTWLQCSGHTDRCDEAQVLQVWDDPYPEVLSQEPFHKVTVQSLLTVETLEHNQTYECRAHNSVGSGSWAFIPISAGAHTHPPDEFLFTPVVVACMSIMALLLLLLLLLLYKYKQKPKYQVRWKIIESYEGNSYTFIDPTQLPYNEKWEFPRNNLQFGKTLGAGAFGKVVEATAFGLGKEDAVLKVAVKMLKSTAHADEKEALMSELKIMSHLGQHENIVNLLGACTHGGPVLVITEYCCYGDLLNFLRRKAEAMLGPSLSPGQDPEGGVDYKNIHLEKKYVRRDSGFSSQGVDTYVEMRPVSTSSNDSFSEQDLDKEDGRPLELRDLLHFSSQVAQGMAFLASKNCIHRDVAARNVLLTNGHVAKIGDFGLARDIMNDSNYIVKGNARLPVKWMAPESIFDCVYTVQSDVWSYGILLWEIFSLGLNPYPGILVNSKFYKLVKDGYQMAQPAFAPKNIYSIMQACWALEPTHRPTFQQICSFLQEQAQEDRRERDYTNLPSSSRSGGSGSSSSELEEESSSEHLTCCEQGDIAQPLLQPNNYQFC

SMILES | IC50 [1] | IC50 (A549) | IC50 (HepG2) | IC50 [2] | further results
CC1(C)C(=O)Nc2cc3nccc(Oc4ccc(NC(=O)Nc5cccc(F)c5)cc4Cl)c3cc21 | 6.49 µM | 4.38 µM | 7.35 µM | 0.0221 µM | –
Cc1cccc(C)c1NC(=O)Nc1ccc(Oc2ccnc3cc4c(cc23)C(C)(C)C(=O)N4)c(Cl)c1 | 4.39 µM | 3.85 µM | 11.2 µM | 0.0281 µM | –
Cc1cc(NC(=O)Nc2ccc(Oc3ccnc4cc5c(cc34)C(C)(C)C(=O)N5)cc2)no1 | 10.1 µM | 6.47 µM | 31.7 µM | 0.0585 µM | –
Cc1cccc(C)c1NC(=O)Nc1ccc(Oc2ccnc3cc4c(cc23)C(C)(C)C(=O)N4)cc1 | 10.3 µM | 10.5 µM | 20.3 µM | 0.0521 µM | –
Cc1cc(NC(=O)Nc2ccc(Oc3ccnc4cc5c(cc34)C(C)(C)C(=O)N5)c(F)c2)no1 | 4.18 µM | 5.03 µM | 12 µM | 0.0272 µM | –
CC1(C)C(=O)Nc2cc3nccc(Oc4ccc(NC(=O)Nc5cccc(F)c5)cc4)c3cc21 | 10.6 µM | 5.46 µM | 12 µM | 0.0373 µM | –
CNC(=O)c1cc(Oc2ccc(NC(=O)Nc3ccc(Cl)c(C(F)(F)F)c3)cc2)ccn1 [SORAFENIB] | 6.78 µM | 5.23 µM | 12.7 µM | 0.0285 µM | –
CC1(C)C(=O)Nc2cc3nccc(Oc4ccc(NC(=O)Nc5ccc(F)c(C(F)(F)F)c5)cc4Cl)c3cc21 | 1.1 µM | 0.916 µM | 6.36 µM | 0.0087 µM | inhibition [3]: 1.5%; inhibition [4]: 18.7%; inhibition [5]: 16.5%; inhibition [6]: 26.2%; inhibition [7]: 34.1%; inhibition [8]: 15%; inhibition [9]: 22.3%; inhibition [10]: 1.4%; inhibition [11]: 4.9%; inhibition (Homo sapiens): 1.3%; inhibition [12]: 0.3%; inhibition [13]: 3.6%; inhibition [14]: 0.2%; inhibition [15]: 4.7%; inhibition [16]: 20.2%; inhibition [17]: 0.6%; inhibition [18]: 46.9%; inhibition [19]: 15.3%; inhibition [20]: 7.8%; inhibition [21]: 94.6%
CC1(C)C(=O)Nc2cc3nccc(Oc4ccc(NC(=O)Nc5ccc(F)c(C(F)(F)F)c5)cc4F)c3cc21 | 2.85 µM | 2.16 µM | 8.09 µM | 0.0159 µM | –
Cc1cccc(C)c1NC(=O)Nc1ccc(Oc2ccnc3cc4c(cc23)C(C)(C)C(=O)N4)c(F)c1 | 3.75 µM | 4.07 µM | 10.3 µM | 0.0303 µM | –
Cc1cc(NC(=O)Nc2ccc(Oc3ccnc4cc5c(cc34)C(C)(C)C(=O)N5)c(Cl)c2)no1 | 5.86 µM | 5.76 µM | 8.46 µM | 0.0187 µM | –
CC1(C)C(=O)Nc2cc3nccc(Oc4ccc(NC(=O)Nc5cccc(F)c5)cc4F)c3cc21 | 5.64 µM | 7.71 µM | 15.5 µM | 0.0252 µM | –
CC1(C)C(=O)Nc2cc3nccc(Oc4ccc(NC(=O)Nc5ccc(F)c(C(F)(F)F)c5)cc4)c3cc21 | 4.23 µM | 3.2 µM | 9.56 µM | 0.0147 µM | –
